The record followed here is EP1137645B1, “ALPHA-METHYLBENZYL-CONTAINING THIOUREA INHIBITORS OF HERPES VIRUSES CONTAINING A […] GROUP” (Wyeth, priority 1998, dated 2000).

≈ marks a conversion by molar mass, not a printed value. A value given as a limit tells only on which side of the number the result lay.

For test [1], the system named is HCMV recombinant mutant virus whose genome contains the prokaryotic beta-glucuronidase gene. As to the kind of experiment: microbe, parasite or virus in culture. The class given is cell-based, human cytomegalovirus. To be noted: Human betaherpesvirus 5, Fibroblast, read-out: IC50 ug/ml HCMV, HCMV, human foreskin fibroblasts. The method in brief:
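Human foreskin fibroblasts infected with HCMV recombinant carrying beta-glucuronidase under a viral promoter (e.g. RV145) in presence of compound. At 96 h post-infection, lysates assayed for beta-glucuronidase by colorimetric or fluorogenic substrate as replication readout; IC50 estimated from varying compound amounts.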

A further test relates to HSV- I. As to the kind of experiment: HSV antiviral (ELISA) assay. The class given is cell-based. Particulars: HSV- I, Vero cells, ELISA; read-out: IC50 (ug/ml) HSV. The method in brief:
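Vero cells in DMEM with 2% FBS treated with compound 30 min before HSV-1 infection (MOI 0.006), then incubated ~24 h at 37°C. Viral replication measured by ELISA against glycoprotein D with β-galactosidase-linked secondary and fluorogenic substrate (ex 365/em 450 nm); IC50 relative to untreated fluorescence.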
A general note: An ELISA detects its analyte on a solid surface through an enzyme-linked reagent.

A further test relates to VZV strain Ellen. Description: VZV antiviral (ELISA) assay. Format: cell-based. To be noted: Human alphaherpesvirus 3, HFF; for inhibition at 10 µg/mL: read-out: % inhibition 10 ug/ml VZV; for IC50: read-out: IC50 (ug/ml) VZV. The method, boiled down:
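HFF cells infected with VZV Ellen at multiplicity below 0.1 overnight, then mixed infected/uninfected cells seeded with compound in DMEM/2% FBS and incubated three days at 37°C, 5% CO2.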

As for `COc1cc(OC)c(NC(=S)Nc2ccc(NC(=O)c3ccccc3F)c(Cl)c2)cc1Cl` [Example 278, N-{2-Chloro-4-[3-(5-chloro-2,4-dimethoxy-phenyl)-thioureido]-phenyl}-2-fluoro-benzamide], the IC50 (in test [1]; with HSV- I; in the test on VZV strain Ellen) was over 10 µg/mL in each case. Also, in the test on VZV strain Ellen, the inhibition at 10 µg/mL amounted to 15%.

As for `COc1cc(OC)c(NC(=S)Nc2ccc(NC(=O)c3ccccc3F)c(C(=O)c3ccccc3)c2)cc1Cl` [Example 293, N-{2-Benzoyl-4-[3-(5-chloro-2,4-dimethoxy-phenyl)-thioureido]-phenyl}-2-fluoro-benzamide], the results for the IC50 (in test [1]; with HSV- I; in the test on VZV strain Ellen) were over 10 µg/mL, over 50 µg/mL and over 10 µg/mL, respectively. The inhibition at 10 µg/mL in the test with VZV strain Ellen turned out to be 2%.

With `CN1CCC(N(C)c2ccc(NC(=S)Nc3ccc(NC(=O)c4ccccc4F)cc3)cc2Cl)C1` (centres unmarked) [Example 332, N-[4-(3-{3-Chloro-4-[methyl-(1-methyl-pyrrolidin-3-yl)-amino]-phenyl}-thioureido)-phenyl]-2-fluoro-benzamide], the values for the IC50 (in test [1]; with HSV- I; in the test with VZV strain Ellen) were 0.9 µg/mL (≈ 1.76 µM), 1 µg/mL (≈ 1.95 µM) and 8 µg/mL (≈ 15.6 µM), respectively. In the test on VZV strain Ellen, the inhibition at 10 µg/mL amounted to 90%.

Regarding `COc1cc(C)c(Cl)cc1NC(=S)Nc1ccc(NC(=O)c2c(F)cccc2F)cc1` [Example 333, N-{4-[3-(5-Chloro-2-methoxy-4-methyl-phenyl)-thioureido]-phenyl}-2,6-difluoro-benzamide], the IC50 in test [1] came to 2.5 µg/mL (≈ 5.41 µM); with HSV- I, 0.04 µg/mL (≈ 0.0866 µM); with VZV strain Ellen it was 4.5 µg/mL (≈ 9.74 µM). The inhibition at 10 µg/mL with VZV strain Ellen amounted to 92%.

As to `CN1CCC(N(C)c2ccc(NC(=S)Nc3ccc(NC(=O)c4c(F)cccc4F)cc3)cc2Cl)CC1` [Example 340, N-[4-(3-{3-Chloro-4-[methyl-(1-methyl-piperidin-4-yl)-amino]-phenyl}-thioureido)-phenyl]-2,6-difluoro-benzamide], the IC50 in test [1] amounted to 0.25 µg/mL (≈ 0.459 µM); in the test with HSV- I, 3 µg/mL (≈ 5.51 µM); in the test on VZV strain Ellen it was 4 µg/mL (≈ 7.35 µM). Besides, the inhibition at 10 µg/mL in the test on VZV strain Ellen stood at 99%.

Consider `CSc1ccc(NC(=S)Nc2ccc(NC(=O)c3ccccc3C)cc2)cc1Cl` [Example 342, N-{4-[3-(3-Chloro-4-methylsulfanyl-phenyl)-thioureido]-phenyl}-2-methyl-benzamide], for which the IC50 is 1.4 µg/mL (≈ 3.17 µM) in test [1], 0.2 µg/mL (≈ 0.452 µM) with HSV- I and over 10 µg/mL in the test on VZV strain Ellen. The inhibition at 10 µg/mL in the test on VZV strain Ellen worked out at 62%.

Take `Cc1ccccc1C(=O)Nc1ccc(NC(=S)Nc2ccc(N(C)C)c(Cl)c2)cc1` [Example 346, N-{4-[3-(3-Chloro-4-dimethylamino-phenyl)-thioureido]-phenyl}-2-methyl-benzamide]: the IC50 was 2 µg/mL (≈ 4.56 µM) in test [1], 6 µg/mL (≈ 13.7 µM) with HSV- I and over 10 µg/mL in the test on VZV strain Ellen. Moreover, the inhibition at 10 µg/mL in the test on VZV strain Ellen was found to be 62%.

With `CN(C)c1ccc(NC(=S)Nc2ccc(NC(=O)c3c(F)cccc3F)cc2)cc1Cl` [Example 348, N-{4-[3-(3-Chloro-4-dimethylamino-phenyl)-thioureido]-phenyl}-2,6-difluoro-benzamide], the IC50 in test [1] was 0.8 µg/mL (≈ 1.74 µM); in the test on HSV- I, 4 µg/mL (≈ 8.68 µM); in the test on VZV strain Ellen, 8 µg/mL (≈ 17.4 µM). For the same compound, the inhibition at 10 µg/mL in the test with VZV strain Ellen amounted to 95%.

For the compound `CN1CCC(N(C)c2ccc(NC(=S)Nc3ccc(NC(=O)c4c(F)cccc4F)cc3)cc2Cl)C1` (centres unmarked) [Example 349, N-[4-(3-{3-Chloro-4-[methyl-(1-methyl-pyrrolidin-3-yl)-amino]-phenyl}-thioureido)-phenyl]-2,6-difluoro-benzamide], the IC50 came to 1.2 µg/mL (≈ 2.26 µM) in test [1], 5 µg/mL (≈ 9.43 µM) in the test with HSV- I and 4 µg/mL (≈ 7.55 µM) with VZV strain Ellen. In addition, the inhibition at 10 µg/mL in the test with VZV strain Ellen came out at 110%.

In the case of `COc1cc(OC)c(NC(=S)Nc2ccc(NC(=O)c3ccccc3F)cc2Cl)cc1Cl` [Example 355, N-{3-Chloro-4-[3-(5-chloro-2,4-dimethoxy-phenyl)-thioureido]-phenyl}-2-fluoro-benzamide], the IC50 was over 10 µg/mL in test [1], 0.035 µg/mL (≈ 0.0708 µM) in the test with HSV- I and over 10 µg/mL in the test on VZV strain Ellen. For the same compound, the inhibition at 10 µg/mL with VZV strain Ellen came to 40%.

Regarding `O=C(Nc1ccc(NC(=S)Nc2ccc(SC3CCCCC3)c(Cl)c2)cc1)c1ccccc1F` [Example 357, N-{4-[3-(3-Chloro-4-cyclohexylsulfanyl-phenyl)-thioureido]-phenyl}-2-fluoro-benzamide], the IC50 is 9 µg/mL (≈ 17.5 µM) in test [1], over 10 µg/mL in the test on HSV- I and 40 µg/mL (≈ 77.8 µM) in the test on VZV strain Ellen. For the same compound, the inhibition at 10 µg/mL in the test on VZV strain Ellen turned out to be 44%.

Regarding `CN(C)CC(=O)Nc1ccc(NC(=S)Nc2ccc(NC(=O)c3ccccc3F)cc2)cc1Cl` [Example 362, N-(4-{3-[3-Chloro-4-(2-dimethylamino-acetylamino)-phenyl]-thioureido}-phenyl)-2-fluoro-benzamide], the IC50 (in test [1]; with HSV- I; with VZV strain Ellen) was over 10 µg/mL in each case. Also, the inhibition at 10 µg/mL in the test with VZV strain Ellen came to 8%.

As for `O=C(CN1CCCCC1)Nc1ccc(NC(=S)Nc2ccc(NC(=O)c3ccccc3F)cc2)cc1Cl` [Example 364, N-(4-{3-[3-Chloro-4-(2-piperidin-1-yl-acetylamino)-phenyl]-thioureido}-phenyl)-2-fluoro-benzamide], the figures for the IC50 (in test [1]; with HSV- I; in the test on VZV strain Ellen) were over 10 µg/mL, over 10 µg/mL and over 15 µg/mL, respectively. Also, the inhibition at 10 µg/mL in the test on VZV strain Ellen came to 73%.

`O=C(CN1CCOCC1)Nc1ccc(NC(=S)Nc2ccc(NC(=O)c3ccccc3F)cc2)cc1Cl` [Example 367, N-(4-{3-[3-Chloro-4-(2-morpholin-4-yl-acetylamino)-phenyl]-thioureido}-phenyl)-2-fluoro-benzamide]: the IC50 (in test [1]; in the test on HSV- I; in the test on VZV strain Ellen) was over 10 µg/mL each time. In the test with VZV strain Ellen, the inhibition at 10 µg/mL worked out at 20%.

Take `CS(=O)(=O)Nc1ccc(NC(=S)Nc2ccc(NC(=O)c3ccccc3F)cc2)cc1Cl` [Example 370, N-{4-[3-(3-Chloro-4-methanesulfonylamino-phenyl)-thioureido]-phenyl}-2-fluoro-benzamide]: the IC50 (in test [1]; in the test on HSV- I; in the test on VZV strain Ellen) was over 10 µg/mL in each case. Besides, the inhibition at 10 µg/mL with VZV strain Ellen turned out to be 16%.

`CN(C)CCSCC(=O)Nc1ccc(NC(=S)Nc2ccc(NC(=O)c3ccccc3F)cc2)cc1Cl` [Example 373, N-[4-(3-{3-Chloro-4-[2-(2-dimethylamino-ethylsulfanyl)-acetylamino]-phenyl}-thioureido)-phenyl]-2-fluoro-benzamide]: the IC50 in test [1] is 6 µg/mL (≈ 10.7 µM); in the test with HSV- I it was 9 µg/mL (≈ 16.1 µM); in the test with VZV strain Ellen it was over 10 µg/mL. Moreover, in the test with VZV strain Ellen, the inhibition at 10 µg/mL stood at 4%.

Regarding `Cc1ccccc1C(=O)Nc1ccc(NC(=S)Nc2ccc(N(C)C3CCN(Cc4ccccc4)C3)c(Cl)c2)cc1` (centres unmarked) [Example 374, N-[4-(3-{4-[(1-Benzyl-pyrrolidin-3-yl)-methyl-amino]-3-chloro-phenyl}-thioureido)-phenyl]-2-methyl-benzamide], the IC50 in test [1] is 3 µg/mL (≈ 5.14 µM); with HSV- I, 3 µg/mL (≈ 5.14 µM); with VZV strain Ellen, 4 µg/mL (≈ 6.85 µM). Moreover, in the test with VZV strain Ellen, the inhibition at 10 µg/mL worked out at 70%.

Take `Cc1ccccc1C(=O)Nc1ccc(NC(=S)Nc2ccc(N(C)C3CCN(C)CC3)c(Cl)c2)cc1` [Example 375, N-[4-(3-{3-Chloro-4-[methyl-(1-methyl-piperidin-4-yl)-amino]-phenyl}-thioureido)-phenyl]-2-methyl-benzamide]: the IC50 worked out at 1.5 µg/mL (≈ 2.87 µM) in test [1], 5 µg/mL (≈ 9.58 µM) in the test with HSV- I and 7 µg/mL (≈ 13.4 µM) in the test on VZV strain Ellen. Besides, in the test with VZV strain Ellen, the inhibition at 10 µg/mL was 95%.

Consider `O=C(Nc1ccc(NC(=S)Nc2ccc(Cl)c(C(F)(F)F)c2)cc1)c1c(F)cccc1F` [Example 380, N-{4-[3-(4-Chloro-3-trifluoromethyl-phenyl)-thioureido]-phenyl}-2,6-difluoro-benzamide], for which the IC50 (in test [1]; in the test with HSV- I; in the test with VZV strain Ellen) was over 10 µg/mL each time. Further, the inhibition at 10 µg/mL in the test with VZV strain Ellen worked out at 50%.

With `CCSc1ccc(NC(=S)Nc2ccc(NC(=O)c3ccccc3F)cc2)cc1Cl` [Example 386, N-{4-[3-(3-Chloro-4-ethylsulfanyl-phenyl)-thioureido]-phenyl}-2-fluoro-benzamide], the IC50 in test [1] is 2 µg/mL (≈ 4.35 µM); with HSV- I it was over 10 µg/mL; in the test with VZV strain Ellen, over 10 µg/mL. Moreover, in the test on VZV strain Ellen, the inhibition at 10 µg/mL was determined as 29%.

In the case of `CCCCSc1ccc(NC(=S)Nc2ccc(NC(=O)c3ccccc3F)cc2)cc1Cl` [Example 387, N-{4-[3-(4-Butylsulfanyl-3-chloro-phenyl)-thioureido]-phenyl}-2-fluoro-benzamide], the IC50 (in test [1]; in the test on HSV- I; in the test with VZV strain Ellen) was over 10 µg/mL throughout. In addition, the inhibition at 10 µg/mL in the test on VZV strain Ellen worked out at 26%.

In the case of `C[S+]([O-])c1ccc(NC(=S)Nc2ccc(NC(=O)c3c(F)cccc3F)cc2)cc1Cl` (centres unmarked) [Example 392, N-{4-[3-(3-Chloro-4-methanesulfinyl-phenyl)-thioureido]-phenyl}-2,6-difluoro-benzamide], the IC50 in test [1] was 0.5 µg/mL (≈ 1.04 µM); in the test on HSV- I, over 10 µg/mL; with VZV strain Ellen it was 2 µg/mL (≈ 4.17 µM). Besides, in the test with VZV strain Ellen, the inhibition at 10 µg/mL turned out to be 92%.

Take `CS(=O)(=O)c1ccc(NC(=S)Nc2ccc(NC(=O)c3c(F)cccc3F)cc2)cc1Cl` [Example 393, N-{4-[3-(3-Chloro-4-methanesulfonyl-phenyl)-thioureido]-phenyl}-2,6-difluoro-benzamide]: the figures for the IC50 (in test [1]; in the test on HSV- I; in the test with VZV strain Ellen) were 0.5 µg/mL (≈ 1.01 µM), over 10 µg/mL and over 10 µg/mL, respectively. Also, in the test on VZV strain Ellen, the inhibition at 10 µg/mL was found to be 62%.
